Results from the supplement of paper PMC10307832.

Tests used:
Assay in all cases: relative viability (nuclei count vs DMSO), 5 days (fraction); higher = more cells survive
ALW-II-49-7 + Crizotinib = compound: Cc1ccc(C(=O)Nc2cccc(C(F)(F)F)c2)cc1Nc1cncc(C(N)=O)c1 [ALW-II-49-7] + C[C@@H](Oc1cc(-c2cnn(C3CCNCC3)c2)cnc1N)c1c(Cl)ccc(F)c1Cl [Crizotinib] (partner 1 µM)
In short: (§1)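 After 5 days of treatment, lung cancer cells in 1536-well plates were fixed and stained in a single step (final 0.05% Triton X-100, 1% formaldehyde, 1 ug/ml Hoechst) and their nuclei counted on 4× images. Treatment had been applied by pin tool the day after seeding as one drug alone or as a fixed anchor-drug dose with five library-drug doses (not always all listed) in √10 steps. Relative viability is the nuclei count of treated wells divided by that of vehicle wells, and values are medians of duplicate plates.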

Dasatinib + Luminespib = compound: Cc1nc(Nc2ncc(C(=O)Nc3c(C)cccc3Cl)s2)cc(N2CCN(CCO)CC2)n1 [Dasatinib] + CCNC(=O)c1noc(-c2cc(C(C)C)c(O)cc2O)c1-c1ccc(CN2CCOCC2)cc1 [Luminespib] (partner 0.01 µM)
In short: as §1

Dasatinib + Alpelisib = compound: Cc1nc(Nc2ncc(C(=O)Nc3c(C)cccc3Cl)s2)cc(N2CCN(CCO)CC2)n1 [Dasatinib] + Cc1nc(NC(=O)N2CCC[C@H]2C(N)=O)sc1-c1ccnc(C(C)(C)C(F)(F)F)c1 [Alpelisib] (partner 2 µM)
In short: as §1

Dasatinib + Phenformin = compound: Cc1nc(Nc2ncc(C(=O)Nc3c(C)cccc3Cl)s2)cc(N2CCN(CCO)CC2)n1 [Dasatinib] + N=C(N)NC(=N)NCCc1ccccc1 [Phenformin] (partner 250 µM)
In short: as §1

NCI-H2405
relative viability (ALW-II-49-7 + Crizotinib; first compound 0.08 µM): 0.928
relative viability (ALW-II-49-7 + Crizotinib; first compound 0.253 µM): 0.806
relative viability (ALW-II-49-7 + Crizotinib; first compound 0.8 µM): 0.832
relative viability (ALW-II-49-7 + Crizotinib; first compound 2.53 µM): 0.826
relative viability (ALW-II-49-7 + Crizotinib; first compound 8 µM): 0.68
relative viability (Dasatinib + Luminespib; first compound 0.005 µM): 0.501
relative viability (Dasatinib + Luminespib; first compound 0.01581 µM): 0.309
relative viability (Dasatinib + Luminespib; first compound 0.05 µM): 0.309
relative viability (Dasatinib + Luminespib; first compound 0.1581 µM): 0.247
relative viability (Dasatinib + Luminespib; first compound 0.5 µM): 0.142
relative viability (Dasatinib + Alpelisib; first compound 0.005 µM): 0.621
relative viability (Dasatinib + Alpelisib; first compound 0.01581 µM): 0.334
relative viability (Dasatinib + Alpelisib; first compound 0.05 µM): 0.366
relative viability (Dasatinib + Alpelisib; first compound 0.1581 µM): 0.23
relative viability (Dasatinib + Alpelisib; first compound 0.5 µM): 0.162
relative viability (Dasatinib + Phenformin; first compound 0.005 µM): 0.363
relative viability (Dasatinib + Phenformin; first compound 0.01581 µM): 0.301
relative viability (Dasatinib + Phenformin; first compound 0.05 µM): 0.258
relative viability (Dasatinib + Phenformin; first compound 0.1581 µM): 0.153
relative viability (Dasatinib + Phenformin; first compound 0.5 µM): 0.137

NCI-H3122
relative viability (ALW-II-49-7 + Crizotinib; first compound 0.08 µM): 0.309
relative viability (ALW-II-49-7 + Crizotinib; first compound 0.253 µM): 0.272
relative viability (ALW-II-49-7 + Crizotinib; first compound 0.8 µM): 0.271
relative viability (ALW-II-49-7 + Crizotinib; first compound 2.53 µM): 0.331
relative viability (ALW-II-49-7 + Crizotinib; first compound 8 µM): 0.307
relative viability (Dasatinib + Luminespib; first compound 0.005 µM): 0.0996
relative viability (Dasatinib + Luminespib; first compound 0.01581 µM): 0.0732
relative viability (Dasatinib + Luminespib; first compound 0.05 µM): 0.124
relative viability (Dasatinib + Luminespib; first compound 0.1581 µM): 0.0691
relative viability (Dasatinib + Luminespib; first compound 0.5 µM): 0.0615
relative viability (Dasatinib + Alpelisib; first compound 0.005 µM): 0.835
relative viability (Dasatinib + Alpelisib; first compound 0.01581 µM): 0.858
relative viability (Dasatinib + Alpelisib; first compound 0.05 µM): 0.87
relative viability (Dasatinib + Alpelisib; first compound 0.1581 µM): 0.693
relative viability (Dasatinib + Alpelisib; first compound 0.5 µM): 0.718
relative viability (Dasatinib + Phenformin; first compound 0.005 µM): 0.36
relative viability (Dasatinib + Phenformin; first compound 0.01581 µM): 0.364
relative viability (Dasatinib + Phenformin; first compound 0.05 µM): 0.363
relative viability (Dasatinib + Phenformin; first compound 0.1581 µM): 0.326
relative viability (Dasatinib + Phenformin; first compound 0.5 µM): 0.295

PC-3 [JPC-3]
relative viability (ALW-II-49-7 + Crizotinib; first compound 0.08 µM): 0.854
relative viability (ALW-II-49-7 + Crizotinib; first compound 0.253 µM): 0.979
relative viability (ALW-II-49-7 + Crizotinib; first compound 0.8 µM): 1.05
relative viability (ALW-II-49-7 + Crizotinib; first compound 2.53 µM): 1.06
relative viability (ALW-II-49-7 + Crizotinib; first compound 8 µM): 1.01
relative viability (Dasatinib + Luminespib; first compound 0.005 µM): 0.741
relative viability (Dasatinib + Luminespib; first compound 0.01581 µM): 0.646
relative viability (Dasatinib + Luminespib; first compound 0.05 µM): 0.76
relative viability (Dasatinib + Luminespib; first compound 0.1581 µM): 0.576
relative viability (Dasatinib + Luminespib; first compound 0.5 µM): 0.389
relative viability (Dasatinib + Alpelisib; first compound 0.005 µM): 1.08
relative viability (Dasatinib + Alpelisib; first compound 0.01581 µM): 1.09
relative viability (Dasatinib + Alpelisib; first compound 0.05 µM): 1.12
relative viability (Dasatinib + Alpelisib; first compound 0.1581 µM): 0.966
relative viability (Dasatinib + Alpelisib; first compound 0.5 µM): 0.477
relative viability (Dasatinib + Phenformin; first compound 0.005 µM): 0.482
relative viability (Dasatinib + Phenformin; first compound 0.01581 µM): 0.458
relative viability (Dasatinib + Phenformin; first compound 0.05 µM): 0.453
relative viability (Dasatinib + Phenformin; first compound 0.1581 µM): 0.473
relative viability (Dasatinib + Phenformin; first compound 0.5 µM): 0.305

PC-14
relative viability (ALW-II-49-7 + Crizotinib; first compound 0.08 µM): 0.911
relative viability (ALW-II-49-7 + Crizotinib; first compound 0.253 µM): 0.953
relative viability (ALW-II-49-7 + Crizotinib; first compound 0.8 µM): 0.841
relative viability (ALW-II-49-7 + Crizotinib; first compound 2.53 µM): 0.863
relative viability (ALW-II-49-7 + Crizotinib; first compound 8 µM): 0.866
relative viability (Dasatinib + Luminespib; first compound 0.005 µM): 0.237
relative viability (Dasatinib + Luminespib; first compound 0.01581 µM): 0.113
relative viability (Dasatinib + Luminespib; first compound 0.05 µM): 0.152
relative viability (Dasatinib + Luminespib; first compound 0.1581 µM): 0.158
relative viability (Dasatinib + Luminespib; first compound 0.5 µM): 0.105
relative viability (Dasatinib + Alpelisib; first compound 0.005 µM): 0.916
relative viability (Dasatinib + Alpelisib; first compound 0.01581 µM): 0.85
relative viability (Dasatinib + Alpelisib; first compound 0.05 µM): 0.734
relative viability (Dasatinib + Alpelisib; first compound 0.1581 µM): 0.546
relative viability (Dasatinib + Alpelisib; first compound 0.5 µM): 0.185
relative viability (Dasatinib + Phenformin; first compound 0.005 µM): 0.618
relative viability (Dasatinib + Phenformin; first compound 0.01581 µM): 0.681
relative viability (Dasatinib + Phenformin; first compound 0.05 µM): 0.553
relative viability (Dasatinib + Phenformin; first compound 0.1581 µM): 0.339
relative viability (Dasatinib + Phenformin; first compound 0.5 µM): 0.152

RERF-LC-KJ
relative viability (ALW-II-49-7 + Crizotinib; first compound 0.08 µM): 0.831
relative viability (ALW-II-49-7 + Crizotinib; first compound 0.253 µM): 0.924
relative viability (ALW-II-49-7 + Crizotinib; first compound 0.8 µM): 0.992
relative viability (ALW-II-49-7 + Crizotinib; first compound 2.53 µM): 0.831
relative viability (ALW-II-49-7 + Crizotinib; first compound 8 µM): 0.741
relative viability (Dasatinib + Luminespib; first compound 0.005 µM): 1.3
relative viability (Dasatinib + Luminespib; first compound 0.01581 µM): 1.05
relative viability (Dasatinib + Luminespib; first compound 0.05 µM): 1.06
relative viability (Dasatinib + Luminespib; first compound 0.1581 µM): 0.982
relative viability (Dasatinib + Luminespib; first compound 0.5 µM): 0.993
relative viability (Dasatinib + Alpelisib; first compound 0.005 µM): 0.823
relative viability (Dasatinib + Alpelisib; first compound 0.01581 µM): 0.496
relative viability (Dasatinib + Alpelisib; first compound 0.05 µM): 0.665
relative viability (Dasatinib + Alpelisib; first compound 0.1581 µM): 0.614
relative viability (Dasatinib + Alpelisib; first compound 0.5 µM): 0.432
relative viability (Dasatinib + Phenformin; first compound 0.005 µM): 0.406
relative viability (Dasatinib + Phenformin; first compound 0.01581 µM): 0.348
relative viability (Dasatinib + Phenformin; first compound 0.05 µM): 0.363
relative viability (Dasatinib + Phenformin; first compound 0.1581 µM): 0.355
relative viability (Dasatinib + Phenformin; first compound 0.5 µM): 0.305

SK-LU-1
relative viability (ALW-II-49-7 + Crizotinib; first compound 0.08 µM): 0.863
relative viability (ALW-II-49-7 + Crizotinib; first compound 0.253 µM): 0.898
relative viability (ALW-II-49-7 + Crizotinib; first compound 0.8 µM): 0.988
relative viability (ALW-II-49-7 + Crizotinib; first compound 2.53 µM): 0.853
relative viability (ALW-II-49-7 + Crizotinib; first compound 8 µM): 0.584
relative viability (Dasatinib + Luminespib; first compound 0.005 µM): 0.162
relative viability (Dasatinib + Luminespib; first compound 0.01581 µM): 0.15
relative viability (Dasatinib + Luminespib; first compound 0.05 µM): 0.151
relative viability (Dasatinib + Luminespib; first compound 0.1581 µM): 0.104
relative viability (Dasatinib + Luminespib; first compound 0.5 µM): 0.118
relative viability (Dasatinib + Alpelisib; first compound 0.005 µM): 0.623
relative viability (Dasatinib + Alpelisib; first compound 0.01581 µM): 0.399
relative viability (Dasatinib + Alpelisib; first compound 0.05 µM): 0.318
relative viability (Dasatinib + Alpelisib; first compound 0.1581 µM): 0.2
relative viability (Dasatinib + Alpelisib; first compound 0.5 µM): 0.234
relative viability (Dasatinib + Phenformin; first compound 0.005 µM): 0.342
relative viability (Dasatinib + Phenformin; first compound 0.01581 µM): 0.257
relative viability (Dasatinib + Phenformin; first compound 0.05 µM): 0.193
relative viability (Dasatinib + Phenformin; first compound 0.1581 µM): 0.179
relative viability (Dasatinib + Phenformin; first compound 0.5 µM): 0.148

SK-MES-1
relative viability (ALW-II-49-7 + Crizotinib; first compound 0.08 µM): 0.885
relative viability (ALW-II-49-7 + Crizotinib; first compound 0.253 µM): 0.979
relative viability (ALW-II-49-7 + Crizotinib; first compound 0.8 µM): 0.948
relative viability (ALW-II-49-7 + Crizotinib; first compound 2.53 µM): 0.926
relative viability (ALW-II-49-7 + Crizotinib; first compound 8 µM): 0.7
relative viability (Dasatinib + Luminespib; first compound 0.005 µM): 0.844
relative viability (Dasatinib + Luminespib; first compound 0.01581 µM): 0.656
relative viability (Dasatinib + Luminespib; first compound 0.05 µM): 0.353
relative viability (Dasatinib + Luminespib; first compound 0.1581 µM): 0.128
relative viability (Dasatinib + Luminespib; first compound 0.5 µM): 0.154
relative viability (Dasatinib + Alpelisib; first compound 0.005 µM): 0.991
relative viability (Dasatinib + Alpelisib; first compound 0.05 µM): 0.713
relative viability (Dasatinib + Alpelisib; first compound 0.1581 µM): 0.474
relative viability (Dasatinib + Alpelisib; first compound 0.5 µM): 0.251
relative viability (Dasatinib + Phenformin; first compound 0.005 µM): 0.721
relative viability (Dasatinib + Phenformin; first compound 0.01581 µM): 0.681
relative viability (Dasatinib + Phenformin; first compound 0.05 µM): 0.669
relative viability (Dasatinib + Phenformin; first compound 0.1581 µM): 0.361
relative viability (Dasatinib + Phenformin; first compound 0.5 µM): 0.171

SW 1573
relative viability (ALW-II-49-7 + Crizotinib; first compound 0.08 µM): 0.884
relative viability (ALW-II-49-7 + Crizotinib; first compound 0.253 µM): 0.747
relative viability (ALW-II-49-7 + Crizotinib; first compound 0.8 µM): 0.748
relative viability (ALW-II-49-7 + Crizotinib; first compound 2.53 µM): 1.1
relative viability (ALW-II-49-7 + Crizotinib; first compound 8 µM): 0.707
relative viability (Dasatinib + Luminespib; first compound 0.005 µM): 0.211
relative viability (Dasatinib + Luminespib; first compound 0.01581 µM): 0.216
relative viability (Dasatinib + Luminespib; first compound 0.05 µM): 0.272
relative viability (Dasatinib + Luminespib; first compound 0.1581 µM): 0.139
relative viability (Dasatinib + Luminespib; first compound 0.5 µM): 0.154
relative viability (Dasatinib + Alpelisib; first compound 0.005 µM): 0.596
relative viability (Dasatinib + Alpelisib; first compound 0.01581 µM): 0.524
relative viability (Dasatinib + Alpelisib; first compound 0.05 µM): 0.438
relative viability (Dasatinib + Alpelisib; first compound 0.1581 µM): 0.302
relative viability (Dasatinib + Alpelisib; first compound 0.5 µM): 0.241
relative viability (Dasatinib + Phenformin; first compound 0.005 µM): 0.417
relative viability (Dasatinib + Phenformin; first compound 0.01581 µM): 0.326
relative viability (Dasatinib + Phenformin; first compound 0.05 µM): 0.288
relative viability (Dasatinib + Phenformin; first compound 0.1581 µM): 0.217
relative viability (Dasatinib + Phenformin; first compound 0.5 µM): 0.18
